Data: US8802678B2, “Carbonylated (aza) cyclohexanes as dopamine D3 receptor ligands” (Bioprojet, priority 2006, dated 2014)

melting point	SMILES
168 °C	N#CCC(=O)N[C@H]1CC[C@H](CCN2CCN(c3cccc(Cc4ccccc4)c3)CC2)CC1 [Example 216, N-(4-{2-[4-(3-Benzylphenyl)-piperazin-1-yl]ethyl}cyclohexyl)-2-cyanoacetamide]
183 to 184 °C	COc1cc(N2CCN(CC[C@H]3CC[C@H](NC(=O)CC#N)CC3)CC2)cc(C(F)(F)F)c1 [Example 160, 2-Cyano-N-(4-{2-[4-(3-methoxy-5-trifluoromethylphenyl)piperazin-1-yl]ethyl}cyclohexyl)acetamide]
280 °C	CSc1ccccc1N1CCN(CCC2CCN(CC(C)=O)CC2)CC1.Cl.Cl
218 °C	N#CCC(=O)N[C@H]1CC[C@H](CCN2CCN(c3ccc(Cl)cc3F)CC2)CC1 [Example 359, N-(4-{2-[4-(4-Chloro-2-fluorophenyl)piperazin-1-yl]ethyl}cyclohexyl)-2-cyanoacetamide]
268 °C	COc1ccc(OC)c(N2CCN(CCC3CCN(CC(C)=O)CC3)CC2)c1.Cl.Cl
175 °C	Cc1cccc(N2CCN(CC[C@H]3CC[C@H](NC(=O)CC#N)CC3)CC2)c1 [Example 166, 2-Cyano-N-{4-[2-(4-m-tolylpiperazin-1-yl)ethyl]cyclohexyl}acetamide]
137 °C	Cl.NC(=O)CCC(=O)N1CCC(CCN2CCN(c3cccc4c3CCC4)CC2)CC1
320 to 325 °C	CC(=O)CN1CCC(CCN2CCN(c3cccc(Cl)c3C)CC2)CC1.Cl.Cl
252 °C	CC(=O)CN1CCC(CCN2CCN(c3cccc(C(C)C)c3)CC2)CC1.Cl.Cl
142 to 143 °C	CCc1ccccc1N1CCN(CC[C@H]2CC[C@H](NC(=O)CC#N)CC2)CC1 [Example 247, 2-Cyano-N-(4-{2-[4-(2-ethylphenyl)piperazin-1-yl]ethyl}cyclohexyl)acetamide]
177 °C	COCCCC(=O)N[C@H]1CC[C@H](CCN2CCN(c3cc(F)cc(C(F)(F)F)c3)CC2)CC1 [Example 757, N-(4-{2-[4-(3-Fluoro-5-trifluoromethylphenyl)piperazin-1-yl]ethyl}cyclohexyl)-4-methoxybutanamide]
339 °C	CC(=O)CN1CCC(CCN2CCC(c3cccc4c3CCC4)CC2)CC1.Cl.Cl
152 °C	O=C(CCC(F)(F)F)N[C@H]1CC[C@H](CCN2CCN(c3cccc(C(F)(F)F)c3)CC2)CC1 [Example 265, 4,4,4-Trifluoro-N-(4-{2-[4-(3-trifluoromethylphenyl)piperazin-1-yl]ethyl}cyclohexyl)butanamide]
169 °C	N#CCCCC(=O)N[C@H]1CC[C@H](CCN2CCN(c3csc4cc(C(F)(F)F)ccc34)CC2)CC1 [Example 253, 4-Cyano-N-(4-{2-[4-(6-trifluoromethylbenzo[b]thiophen-3-yl)piperazin-1-yl]ethyl}cyclohexyl)butanamide]
250 °C	CC(=O)CN1CCC(CCN2CCN(c3ccccc3F)CC2)CC1.Cl.Cl
187 to 189 °C	N#CCC(=O)N[C@H]1CC[C@H](CCN2CCN(c3cccc(F)c3C#N)CC2)CC1 [Example 208]
136 °C	COCC(=O)N[C@H]1CC[C@H](CCN2CCN(c3ccccc3)CC2)CC1 [Example 60, 2-Methoxy-N-{4-[2-(4-phenylpiperazin-1-yl)ethyl]-cyclohexyl}acetamide]
192 °C	N#CCCCC(=O)N[C@H]1CC[C@H](CCN2CCN(c3cccc(Cl)c3Cl)CC2)CC1 [Example 210, 4-Cyano-N-(4-{2-[4-(2,3-dichlorophenyl)piperazin-1-yl]ethyl}cyclohexyl)butanamide]
125 °C	COCCC(=O)N[C@H]1CC[C@H](CCN2CCN(c3cccc(C(F)(F)F)c3)CC2)CC1 [Example 47, 3-Methoxy-N-(4-{2-[4-(3-trifluoromethylphenyl)piperazin-1-yl]ethyl}cyclohexyl)propanamide]
167 °C	N#CCCCC(=O)N[C@H]1CC[C@H](CCN2CCN(c3ccc(F)cc3F)CC2)CC1 [Example 401, 4-Cyano-N-(4-{2-[4-(2,4-difluorophenyl)piperazin-1-yl]ethyl}cyclohexyl)butanamide]
113 °C	CSc1cccc(N2CCN(CCC3CCN(CC(C)=O)CC3)CC2)c1 [Example 686, 1-(4-{2-[4-(3-Methylsulfanyl-phenyl)piperazin-1-yl]ethyl}-piperidin-1-yl)propan-2-one]
200 °C	N#CCC(=O)N[C@H]1CC[C@H](CCN2CCN(c3cc(Cl)cc(Cl)c3)CC2)CC1 [Example 151, 2-Cyano-N-(4-{2-[4-(3,5-dichlorophenyl)piperazin-1-yl]ethyl}cyclohexyl)acetamide]
266 °C	CC(=O)CN1CCC(CCN2CCN(c3ccc(F)c(C(F)(F)F)c3)CC2)CC1.Cl.Cl
133 to 134 °C	Cc1ccc(Cl)cc1N1CCN(CC[C@H]2CC[C@H](NC(=O)CCC#N)CC2)CC1 [Example 257, N-(4-{2-[4-(5-Chloro-2-methylphenyl)piperazin-1-yl]ethyl}cyclohexyl)-3-cyanopropanamide]

melting point	SMILES
181 °C	Cc1c(N2CCN(CC[C@H]3CC[C@H](NC(=O)CC#N)CC3)CC2)cccc1C(F)(F)F [Example 178, 2-Cyano-N-(4-{2-[4-(2-methyl-3-trifluoromethylphenyl)piperazin-1-yl]ethyl}cyclohexyl)acetamide]
148 °C	N#CCCCC(=O)N[C@H]1CC[C@H](CCN2CCN(c3cccc4c3CCCC4)CC2)CC1 [Example 209, 4-Cyano-N-(4-{2-[4-(5,6,7,8-tetrahydronaphthalen-1-yl)piperazin-1-yl]ethyl}cyclohexyl)butanamide]
124 °C	CCc1ccccc1N1CCN(CC[C@H]2CC[C@H](NC(=O)CCCC#N)CC2)CC1 [Example 286, 4-Cyano-N-(4-{2-[4-(2-ethylphenyl)piperazin-1-yl]ethyl}cyclohexyl)butanamide]
200 °C	O=C(CC(F)(F)F)N[C@H]1CC[C@H](CCN2CCN(c3ccc(F)cc3)CC2)CC1 [Example 284, 3,3,3-Trifluoro-N-(4-{2-[4-(4-fluorophenyl)piperazin-1-yl]ethyl}cyclohexyl)propanamide]
309 °C (dec.)	CC(=O)CN1CCC(CCN2CCN(c3cc(Cl)c(Cl)cc3F)CC2)CC1.Cl.Cl
275 °C	CC(=O)CN1CCC(CCN2CCN(c3ccc(Cl)c(Cl)c3Cl)CC2)CC1.Cl.Cl
170 °C	N#CCCCC(=O)N[C@H]1CC[C@H](CCN2CCN(c3ccc4c(c3)CCCC4)CC2)CC1 [Example 510, 4-Cyano-N-(4-{2-[4-(5,6,7,8-tetrahydronaphthalen-2-yl)piperazin-1-yl]ethyl}cyclohexyl)butanamide]
210 °C	N#CCC(=O)N[C@H]1CC[C@H](CCN2CCN(c3ccc4c(c3)CCC4)CC2)CC1 [Example 212, 2-Cyano-N-{4-[2-(4-indan-5-ylpiperazin-1-yl)ethyl]cyclohexyl}acetamide]
180 °C	N#Cc1cccc(N2CCN(CC[C@H]3CC[C@H](NC(=O)CC(F)(F)F)CC3)CC2)c1 [Example 511, N-(4-{2-[4-(3-Cyanophenyl)piperazin-1-yl]ethyl}cyclohexyl)-3,3,3-trifluoropropanamide]
198 °C	N#CCC(=O)N[C@H]1CC[C@H](CCN2CCN(c3cc(F)ccc3F)CC2)CC1 [Example 226, 2-Cyano-N-(4-{2-[4-(2,5-difluorophenyl)piperazin-1-yl]ethyl}cyclohexyl)acetamide]
220 °C	Cc1cc(C)cc(C2=CCN(CC[C@H]3CC[C@@H](NC(=O)CC#N)CC3)CC2)c1.Cl
260 °C	CC(=O)CN1CCC(CCN2CCN(c3cc(C(F)(F)F)cc(C(F)(F)F)c3)CC2)CC1.Cl.Cl
250 °C	CC(=O)CN1CCC(CCN2CCN(c3cccc(C#N)c3)CC2)CC1.Cl.Cl
185 °C	COCCCC(=O)N[C@H]1CC[C@H](CCN2CCN(c3ccc(F)cc3F)CC2)CC1 [Example 504, N-(4-{2-[4-(2,4-Difluorophenyl)piperazin-1-yl]ethyl}cyclohexyl)-4-methoxybutanamide]
150 °C	CC(F)(F)c1cccc(N2CCN(CC[C@H]3CC[C@H](NC(=O)CC#N)CC3)CC2)c1 [Example 281, 2-Cyano-N-[4-(2-{4-[3-(1,1-difluoroethyl)phenyl]piperazin-1-yl}ethyl)cyclohexyl]acetamide trans/cis 90/10]
183 °C	COc1ccc(C(F)(F)F)cc1N1CCN(CC[C@H]2CC[C@H](NC(=O)CC#N)CC2)CC1 [Example 165, 2-Cyano-N-(4-{2-[4-(2-methoxy-5-trifluoromethylphenyl)piperazin-1-yl]ethyl}cyclohexyl)acetamide]
194 °C	CS(=O)(=O)Nc1cccc(N2CCN(CC[C@H]3CC[C@H](NC(=O)CC#N)CC3)CC2)c1 [Example 240, 2-Cyano-N-(4-{2-[4-(3-methanesulfonylaminophenyl)piperazin-1-yl]ethyl}cyclohexyl)-acetamide]
270 °C	CC(=O)CN1CCC(CCN2CCN(c3cccc(F)c3F)CC2)CC1.Cl.Cl
178 °C	Cc1ccc(F)c(N2CCN(CC[C@H]3CC[C@H](NC(=O)CC#N)CC3)CC2)c1 [Example 192, 2-Cyano-N-(4-{2-[4-(2-fluoro-5-methylphenyl)piperazin-1-yl]ethyl}cyclohexyl)acetamide]
247 °C	N#CCC(=O)N[C@H]1CC[C@H](CCN2CCN(c3ccc(Cl)cc3)CC2)CC1 [Example 275, N-(4-{2-[4-(4-Chlorophenyl)piperazin-1-yl]ethyl}cyclohexyl)-2-cyanoacetamide]
260 °C	CC(=O)CN1CCC(CCN2CCN(c3ccc(F)cc3F)CC2)CC1.Cl.Cl
150 °C	N#CCCCC(=O)N[C@H]1CC[C@H](CCN2CCN(c3cccc(SC(F)(F)F)c3)CC2)CC1 [Example 363, 4-Cyano-N-(4-{2-[4-(3-trifluoromethylsulfanylphenyl)piperazin-1-yl]ethyl}cyclohexyl)butanamide]
130 °C	CCOCC(=O)N[C@H]1CC[C@H](CCN2CCN(c3ccc(C)cc3)CC2)CC1 [Example 474, 2-Ethoxy-N-{4-[2-(4-p-tolylpiperazin-1-yl)ethyl]cyclohexyl}acetamide]
